Here are results for 19 compounds from EP4759807A1, “PROTEOLYSIS TARGETING CHIMERA COMPOUND FOR DEGRADING IRAK4 AND USE THEREOF” (Shenzhen Zhongge Biological Technology Co., Ltd., priority 2023, dated 2025).

Structures are written as SMILES. Like-named read-outs stand apart in the source and are kept apart here.

The target in the assay is T1, IRAK4 (Homo sapiens, UniProt Q9NWZ3).
T1 sequence (Q9NWZ3 1-460): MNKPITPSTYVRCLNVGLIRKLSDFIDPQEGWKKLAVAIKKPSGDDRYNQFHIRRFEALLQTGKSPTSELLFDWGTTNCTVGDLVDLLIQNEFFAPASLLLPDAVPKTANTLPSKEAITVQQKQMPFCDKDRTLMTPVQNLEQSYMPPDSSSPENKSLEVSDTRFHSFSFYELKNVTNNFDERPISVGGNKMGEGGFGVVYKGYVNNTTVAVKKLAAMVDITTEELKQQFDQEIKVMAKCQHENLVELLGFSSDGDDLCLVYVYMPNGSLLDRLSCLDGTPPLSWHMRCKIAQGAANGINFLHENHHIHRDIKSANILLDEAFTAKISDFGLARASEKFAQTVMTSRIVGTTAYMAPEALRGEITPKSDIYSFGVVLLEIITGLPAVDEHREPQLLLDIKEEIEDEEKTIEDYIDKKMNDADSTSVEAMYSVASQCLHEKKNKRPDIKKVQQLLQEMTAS
Description: Hibit fluorescence detection of proteolysis (IRAK4-HiBiT in HEK293T cells). Type of assay: cell-based. Also on record: host or cells: HEK293T (ATCC). As to conditions: for Dmax: HEK-293T. In short, it runs like this: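 Degradation read-out: luminescence from lytic HiBiT detection (15 min, room temperature) after 24 h compound exposure (37 °C, 5% CO2) of HEK293T cells transiently expressing IRAK4 fused to a HiBiT tag. Data fitted to a bell-shaped four-parameter model giving two EC50 values.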

Setting [1] is: IRAK4-HiBiT, HEK293T cells, 24 h.
[2] abbreviates: IRAK4-HiBiT, HEK293T cells, 24 h, read-out: DC50.
Where [3] appears, read: IRAK4-HiBiT, HEK293T cells, 24 h, read-out: Dmax.

As to `Cn1c(=O)n(C2CCC(=O)NC2=O)c2cccc(N3CCC4(CCCN(C[C@H]5CC[C@H](n6cc(-n7cc(-c8cnn9ccc(N%10CCOCC%10)nc89)nn7)c(C(F)F)n6)CC5)C4)CC3)c21` (some centres unmarked) [Example 53, 3-(4-(2-(((1r,4r)-4-(3-(difluoromethyl)-4-(4-(5-morpholinopyrazolo[1,5-a]pyrimidin-3-yl)-1H-1,2,3-triazol-1-yl)-1H-pyrazol-1-yl)cyclohexyl)methyl)-2,9-diazaspiro[5.5]undecan-9-yl)-3-methyl-2-oxo-2,3-dihydro-1H-benzo[d]imidazol-1-yl)piperidine-2,6-dione], the Dmax lay in the range of 70 to 80%. Under setting [1], the DC50 lay in the range of 0.5 to 1 nM.
`Cn1c(=O)n(C2CCC(=O)NC2=O)c2cccc(C#CC3CN(C[C@H]4CC[C@H](n5cc(-n6cc(-c7cnn8ccc(N9CCOCC9)nc78)nn6)c(C(F)F)n5)CC4)C3)c21` (some centres unmarked) [Example 27] returned a Dmax of 60 to 70%. This compound also showed a DC50 under setting [1] of less than 0.5 nM.
The like results for `C[C@@H]1CN(C[C@H]2CC[C@H](n3cc(-n4cc(-c5cnn6ccc(N7CCOCC7)nc56)nn4)c(C(F)F)n3)CC2)CCN1c1cccc2c1n(C)c(=O)n2C1CCC(=O)NC1=O` (stereo partly drawn) [Example 46, 3-(4-((R)-4-(((1r,4R)-4-(3-(difluoromethyl)-4-(4-(5-morpholinopyrazolo[1,5-a]pyrimidin-3-yl)-1H-1,2,3-triazol-1-yl)-1H-pyrazol-1-yl)cyclohexyl)methyl)-2-methylpiperazin-1-yl)-3-methyl-2-oxo-2,3-dihydro-1H-benzo[d]imidazol-1-yl)piperidine-2,6-dione] were, in that order, 70 to 80% and less than 0.5 nM.
With `Cn1c(=O)n(C2CCC(=O)NC2=O)c2cccc(N3CCC4(CCN(C[C@H]5CC[C@H](n6cc(-n7cc(-c8cnn9ccc(N%10CCOCC%10)nc89)nn7)c(C(F)F)n6)CC5)C4)C3)c21` (some centres unmarked) [Example 32, 3-(4-((1r,4r)-4-(3-(difluoromethyl)-4-(4-(5-morpholinopyrazolo[[1,5-a]pyrimidin-3-yl)-1H-1,2,3-triazol-1-yl)-1H-pyrazol-1-yl)cyclohexylmethyl)-2,7-diazaspiro[4.4]non-2-yl)-3-methyl-2-oxo-2,3-dihydro-1H-benzo[d]imidazol-1-yl)piperidine-2,6-dione], the Dmax was 70 to 80%. For the same compound, the DC50 under setting [1] was less than 0.5 nM.
`Cn1c(=O)n(C2CCC(=O)NC2=O)c2cccc(N3C4CCC3CN(C[C@H]3CC[C@H](n5cc(-n6cc(-c7cnn8ccc(N9CCOCC9)nc78)nn6)c(C(F)F)n5)CC3)C4)c21` (some centres unmarked) [Example 48, 3-(4-((1r,4r)-4-(3-(difluoromethyl)-4-(4-(5-morpholinopyrazolo[[1,5-a]pyrimidin-3-yl)-1H-1,2,3-triazol-1-yl)-1H-pyrazol-1-yl)cyclohexyl)-3,8-diazabicyclo[3.2.1]oct-8-yl)-3-methyl-2-oxo-2,3-dihydro-1H-benzo[d]imidazol-1-yl)piperidine-2,6-dione] yielded a Dmax of 60 to 70%. For the same compound, the DC50 under setting [1] is greater than 5 nM.
In turn, `Cn1c(=O)n(C2CCC(=O)NC2=O)c2cccc(NC(=O)N3CCC4(CCN(C[C@H]5CC[C@H](n6cc(-n7cc(-c8ccc9cc(C(N)=O)cnn89)nn7)c(C(F)F)n6)CC5)C4)CC3)c21` (some centres unmarked) [Example 90, 2-(((1r,4r)-4-(4-(4-(3-carbamoylpyrrolo[1,2-b]pyridazin-7-yl)-1H-1,2,3-triazol-1-yl) -3-(difluoromethyl)-1H-pyrazol-1-yl)cyclohexyl)methyl)-N-(1-(2,6-dioxopiperidin-3-yl)-3-methyl-2-oxo-2,3-dihydro-1H-benzo[d]imidazol-4-yl)-2,8-diazaspiro[4.5]decan-8-carboxamide] had a Dmax of 70 to 80%. Under setting [1], this compound came in with a DC50 greater than 5 nM.
The compound `Cn1c(=O)n(C2CCC(=O)NC2=O)c2cccc(N3CCC4(CCN(C[C@H]5CC[C@H](n6cc(-n7cc(-c8cnn9ccc(N%10CC%11(COC%11)C%10)nc89)nn7)c(C(F)F)n6)CC5)CC4)CC3)c21` (some centres unmarked) [Compound 223] displayed a Dmax greater than 80%. For the same compound, the DC50 under setting [2] was less than 0.5 nM.
For `NC(=O)c1cnn2c(-c3cn(-c4cn(C5CCN(CC6CCC7(CC6)CCN(C(=O)c6ccc(Cl)c(N8CCC(=O)NC8=O)c6)CC7)CC5)nc4C(F)F)nn3)ccc2c1` [Example 77], the Dmax was 70 to 80%. In addition, the DC50 under setting [1] was in the range of 0.5 to 1 nM.
For the compound `Cc1c(/C=C2\C(=O)Nc3ccc(S(=O)(=O)Nc4ccc(F)cc4)cc32)[nH]c2cc(N3CCN(CC4CCN(c5ccc(C(=O)NC6CCC(=O)NC6=O)c(F)c5)CC4)CC3)ccc12` (centres unmarked) [Example 22, N-(2,6-dioxopiperidin-3-yl)-2-fluoro-4-(4-{[4-(2-{[(3Z)-5-[(4-fluorophenyl)sulfamoyl]-2-oxo-2,3-dihydro-1H-indol-3-ylidene]methyl}-3-methyl-1H-indol-6-yl)piperazin-1-yl]methyl}piperidin-1-yl)benzamide], the Dmax under setting [3] is less than 60%. Also, under setting [2], the DC50 was greater than 5 nM.
The like results for `NC(=O)c1cnn2c(-c3cn(-c4cn(C5CCN(CC6CCN(c7ccc(C(=O)NC8CCC(=O)NC8=O)c(F)c7)CC6)CC5)nc4C(F)F)nn3)ccc2c1` (centres unmarked) [Example 95, 7-{1-[3-(difluoromethyl)-1-{1-[(1-{4-[(2,6-dioxopiperidin-3-yl)aminocarbonyl]-3-fluorophenyl}piperidin-4-yl)methyl]piperidin-4-yl}-1H-pyrazol-4-yl]-1H-1,2,3-triazol-4-yl}pyrrolo[1,2-b]pyridazine-3-carboxamide] were, in that order, less than 60% and greater than 5 nM.
As for `NC(=O)c1cnn2c(-c3cn(-c4cn([C@H]5CC[C@H](CN6CCN(c7ccc(C(=O)NC8CCC(=O)NC8=O)c(F)c7)CC6)CC5)nc4C(F)F)nn3)ccc2c1` (some centres unmarked) [Example 31], the Dmax fell in the range of 70 to 80%. This compound also showed a DC50 under setting [1] greater than 5 nM.
`Cn1c(=O)n(C2CCC(=O)NC2=O)c2cccc(N3CC(CN4CCC(n5cc(-n6cc(-c7ccc8cc(C(N)=O)cnn78)nn6)c(C(F)F)n5)CC4)C3)c21` (centres unmarked) [Example 73, 7-(1-(3-(difluoromethyl)-1-(1-((1-(1-(2,6-dioxopiperidin-3-yl)-3-methyl-2-oxo-2,3-dihydro-1H-benzo[d]imidazol-4-yl)azetidin-3-yl)methyl)piperidin-4-yl)-1H-pyrazol-4-yl)-1H-1,2,3-triazol-4-yl) pyrrolo[1,2-b]pyridazine-3-carboxamide] showed a Dmax of less than 60%. Under setting [1], this compound gave a DC50 of less than 0.5 nM.
The like results for `CN(Cc1cccc2c1n(C)c(=O)n2C1CCC(=O)NC1=O)CC1CCN(C[C@H]2CC[C@H](n3cc(-n4cc(-c5cnn6ccc(N7CCOCC7)nc56)nn4)c(C(F)F)n3)CC2)CC1` (some centres unmarked) [Example 3, 3-(4-((((1-(((1r,4r)-4-(3-(difluoromethyl)-4-(4-(5-morpholinopyrazolo[1,5-a]pyrimidin-3-yl)-1H-1,2,3-triazol-1-yl)-1H-pyrazol-1-yl)cyclohexyl)methyl)piperidin-4-yl)methyl)(methyl)amino)methyl)-3-methyl-2-oxo-2,3-dihydro-1H-benzo[d]imidazol-1-yl)piperidine-2,6-dione] were, in that order, 60 to 70% and less than 0.5 nM.
`Cn1c(=O)n(C2CCC(=O)NC2=O)c2cccc(CN3CCC4(CC3)CN(C[C@H]3CC[C@H](n5cc(-n6cc(-c7cnn8ccc(N9CCOCC9)nc78)nn6)c(C(F)F)n5)CC3)CCO4)c21` (some centres unmarked) [Example 5] returned a Dmax of less than 60%. For the same compound, the DC50 under setting [1] was less than 0.5 nM.
The compound `O=C1CCC(NC(=O)c2ccc(N3CCN(C[C@H]4CC[C@H](n5cc(-n6cc(-c7cnn8ccc(N9CCOCC9)nc78)nn6)c(C(F)F)n5)CC4)CC3)cc2F)C(=O)N1` (some centres unmarked) [Example 28] showed a Dmax of 60 to 70%. Moreover, the DC50 under setting [1] was greater than 5 nM.
For `Cn1c(=O)n(C2CCC(=O)NC2=O)c2cccc(CN3CCC4(CC3)CC(NC[C@H]3CC[C@H](n5cc(-n6cc(-c7cnn8ccc(N9CCOCC9)nc78)nn6)c(C(F)F)n5)CC3)C4)c21` (some centres unmarked) [Example 4] the same measures were greater than 80% and less than 0.5 nM.
The like results for `Cn1c(=O)n(C2CCC(=O)NC2=O)c2cccc(N3CC4CCC(C3)N4C[C@H]3CC[C@H](n4cc(-n5cc(-c6cnn7ccc(N8CCOCC8)nc67)nn5)c(C(F)F)n4)CC3)c21` (stereo partly drawn) [Example 49, 3-(4-((1R,4R)-4-(3-(difluoromethyl)-4-(4-(5-morpholinopyrazolo[[1,5-a]pyrimidin-3-yl)-1H-1,2,3-triazol-1-yl)-1H-pyrazol-1-yl)cyclohexyl)-3,8-diazabicyclo[3.2.1]oct-3-yl)-3-methyl-2-oxo-2,3-dihydro-1H-benzo[d]imidazol-1-yl)piperidine-2,6-dione] were, in that order, 70 to 80% and 1 to 5 nM.
In turn, `Cn1c(=O)n(C2CCC(=O)NC2=O)c2cccc(N3CCC4(CCN(C[C@H]5CC[C@H](n6cc(-n7cc(-c8cnn9ccc(NCCC(C)(C)O)nc89)nn7)c(C(F)F)n6)CC5)CC4)C3)c21` (some centres unmarked) [Compound 240] registered a Dmax greater than 80%. In addition, the DC50 under setting [2] was less than 0.5 nM.
As to `Cn1c(=O)n(C2CCC(=O)NC2=O)c2cccc(CCC(=O)N3CCC4(CC3)CN(C[C@H]3CC[C@H](n5cc(-n6cc(-c7cnn8ccc(N9CCOCC9)nc78)nn6)c(C(F)F)n5)CC3)C4)c21` (some centres unmarked) [Example 16], the Dmax was in the range of 60 to 70%. Under setting [1], this compound came in with a DC50 of less than 0.5 nM.
